Active and inactive are the calls of the source.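 How the source made its calls: active means compounds giving half or more protection of infected cells from virus-caused growth loss, again on retest; inactive means the rest.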 Where a SMILES comes first, the peptide text is derived from it.
Test system: CEM cells HIV-1 protection, formazan growth assay
Assay: NCI AIDS Antiviral Assay
Details: for IC50: measured here: growth of uninfected CEM cells
In short: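 Protection of CEM cells against HIV-1 was scored from cell growth (soluble formazan) across five concentrations, with parallel uninfected cells. Lack of protection may reflect toxicity.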

| Compound | EC50 [µM] | IC50 [µM] | outcome |
| --- | --- | --- | --- |
| COc1cccc(OC)c1SSCCN | > 200 | 24.5 |  |
| CCOC(=O)CC(SP1(=S)OCC2(CC=CCC2)CO1)C(=O)OCC (stereo unspecified) | > 200 | 93.3 |  |
| O=C(CCC(=O)Nc1ccccc1C(F)(F)F)N/N=C1\C(=N\NC(=O)CCC(=O)Nc2ccccc2C(F)(F)F)C(c2ccc3c(c2)OCO3)Oc2ccccc21 (stereo unspecified) | > 23.4 | > 23.4 |  |
| O=[N+]([O-])c1cccc(C2=NC(=S)NC(c3cc(Cl)ccc3O)C2)c1 (stereo unspecified) | > 200 | 141 |  |
| NC(Cc1ccc(O)cn1)C(=O)O (stereo unspecified) | > 200 | > 200 |  |
| O=C(OCCN1CCCCC1)C(c1ccccc1)C1(O)CCSCC1 (stereo unspecified) | > 200 | > 200 |  |
| Oc1cccc2ccc(Br)nc12 | > 200 | 178 |  |
| CCOC(=O)C1=C(Nc2cccc3ccccc23)OCC1=O |  |  | inactive |
| O=C1c2cn[nH]c2C(c2ccccc2)N1c1ccccc1 (stereo unspecified) |  |  | inactive |
| N#Cc1cc([N+](=O)[O-])ccc1NC(=O)/C(=N/N)C(C(=O)c1ccc(Cl)c(Cl)c1)C1OC(=O)c2ccccc21 (stereo unspecified) | > 64.6 | > 64.6 |  |
| CN1C(=O)CC2(C)c3cc(O)ccc3N(C)C12 (stereo unspecified) |  |  | inactive |
| O/N=C1/C(=C/c2ccc(Cl)c(Cl)c2)CCCC1C(NO)c1ccc(Cl)c(Cl)c1 (stereo unspecified) | > 3.16 | > 3.16 |  |
| Cc1cccc(-c2nnc(-c3nn(-c4ccccc4)c4nc5ccccc5nc34)o2)c1 | > 38.9 | 19.5 |  |
| C=CCCCC(C(=O)OCC)C(=O)OCC |  |  | inactive |
| O=C1c2ccccc2C2CC1c1ccccc12 (stereo unspecified) | > 214 | > 200 |  |
| Nc1ncnc2c1nc1n2C2OC(CO)C(O)C2O1 (stereo unspecified) | > 339 | > 339 |  |
| COc1ccc(C2=NN(C(C)=O)c3nc4ccccc4nc3O2)cc1 |  |  | inactive |
| CCCCCCCCCCCCCC(=O)OCC(CCS(=O)(=O)O[C@H]1CC[C@@]2(C)C(=CC[C@@H]3C2CC[C@]2(C)C(=O)CCC32)C1)OC(=O)CCCCCCCCCCCCC (stereo partly specified) | 39.8 | > 100 |  |
| CC1(C)OC2OC(C(COS(=O)(=O)C(F)(F)F)N=[N+]=[N-])C(OC(=O)c3ccccc3)C2O1 (stereo unspecified) | > 200 | > 200 |  |
| c1ccc2c(-c3cccc4ccccc34)cccc2c1 | > 200 | > 200 |  |
| S=C1NC2=S(N=C(Nc3ccccc3)N2c2ccccc2)S1 (stereo unspecified) |  |  | inactive |
| O=c1cc(P(=O)(O)O)[nH]c(=O)[nH]1 |  |  | inactive |

| Compound | EC50 [µM] | IC50 [µM] | outcome |
| --- | --- | --- | --- |
| O=C(/C=C/c1ccc(O)c(O)c1)OC1CC(O)(C(=O)O)CC(O)C1O (stereo unspecified) (tested in a mixture with another compound) | > 200 | 81.3 |  |
| COc1ccc2c(c1)C(C)(C)Oc1cc3oc(C(=O)O)cc(=O)c3cc1-2 | > 355 | > 355 |  |
| CCOC(=O)/C=C1\c2ccccc2C(=O)N1CC(=O)OCC |  |  | inactive |
| O=C(OC[C@H]1OCC(=O)C2(OC(=O)c3ccccc3)C3C=CC(C3)C12)c1ccccc1 (stereo partly specified) |  |  | inactive |
| Cc1cn(C2C[C@H](O)[C@]3(CO)C[C@H]23)c(=O)[nH]c1=O (stereo partly specified) | > 100 | > 100 |  |
| [N-]=[N+]=Nc1c(Cc2ccccc2)c(Cl)nc2ccccc12 | > 200 | 19.1 |  |
| Cc1cccc(NC(=O)Nc2ccc(F)cc2)n1 | 129 | > 200 |  |
| CC(=O)c1sc(Nc2ccc(S(=O)(=O)Nc3nc(C)cc(C)n3)cc2)nc1C | > 200 | 112 |  |
| CCCCCCCCCCCCCCCC(=O)NCC(COP(=O)([O-])OCC[N+](C)(C)C)OCC (stereo unspecified) |  |  | inactive |
| COc1ccc(SSc2ccc(OC)n[n+]2[O-])[n+]([O-])n1 | > 200 | 1 |  |
| COc1cc(=O)n2c3ccccc3n(C)c2c1C#N | > 100 | 56.2 |  |
| C/C(=N/NC(=O)c1ccccc1O)c1ccc(/C(C)=N\NC(=O)c2ccccc2O)c2nc3cc(C)c(C)cc3nc12 | > 64.6 | > 64.6 |  |
| O=C1C2C3C4C1C1C2[C@H](OCc2ccccc2)C3C1[C@H]4OCc1ccccc1 (stereo partly specified) | > 200 | 42.7 |  |
| CSC(=NC(=O)c1ccccc1)SCCSC(=NC(=O)c1ccccc1)SC | > 2.34 | > 2.34 |  |
| O=c1c2cc([N+](=O)[O-])ccc2n(Cc2ccccc2)n1Cc1ccccc1 | > 200 | 13.2 |  |
| Cc1ccc(N2C(=O)/C(=C/c3ccc(N(CCC#N)CCC#N)cc3C)N=C2c2cc([N+](=O)[O-])ccc2Cl)cc1 |  |  | inactive |
| COc1cccc(C2SCc3nc4ccccc4n32)c1 (stereo unspecified) |  |  | inactive |
| CCOC(=O)c1ccc(CSc2ccccc2C(=O)OCC)cc1 | > 3.02 | > 3.02 |  |
| CSC12c3cc(C)n(-c4ccccc4)c3CC(C)(C)CN1C(=O)C2Oc1ccccc1 (stereo unspecified) | > 200 | 16.2 |  |
| O=C1c2ccccc2C(=O)N1CCS(=O)(=O)CCS(=O)(=O)CCN1C(=O)c2ccccc2C1=O | > 200 | > 200 |  |
| Cc1cn(CCOCCOC(=O)NC(CCCNC(N)=O)C(=O)O)c(=O)[nH]c1=O (stereo unspecified) | > 200 | > 200 |  |
| Nc1nc(N)c(-c2ccccc2)c(C(=O)Nc2ccccc2)n1 | > 407 | > 407 |  |

| Compound | EC50 [µM] | IC50 [µM] | outcome |
| --- | --- | --- | --- |
| OC1OC(c2ccco2)C(F)(F)C(F)(F)C1(F)F (stereo unspecified) | > 200 | 102 |  |
| Clc1cc(Cl)c(OCC#CI)cc1Cl | > 200 | 6.92 |  |
| O=C(/C=C\c1cccc2ccccc12)c1cccs1 | > 3.98 | > 3.98 |  |
| COc1cccc(NC(=O)C(=O)C(C(=O)c2ccccc2F)C2OC(=O)c3ccccc32)c1 (stereo unspecified) | > 288 | 10.7 |  |
| O=c1[nH]c2cc(Cl)ccc2nc1/C(=N/Nc1ccccc1)C(O)c1ccco1 (stereo unspecified) | > 575 | > 575 |  |
| COC1C(/C(=N\O)n2cnc3c(Cl)ncnc32)OC2OC(C)(C)OC21 (stereo unspecified) | > 200 | > 100 |  |
| COc1ccc(N2C(=O)c3cccnc3S2(=O)=O)cc1 | > 200 | > 200 |  |
| CCCCCCCCCCCCCCCCP(=O)([O-])OCC[N+](C)(C)C | > 200 | 12 |  |
| C[Si](C)(C)/N=C1\N2C(=NC1(C(F)(F)F)C(F)(F)F)Sc1ccccc12 |  |  | inactive |
| Brc1ccc(-c2nc3sc(-c4ccc5c(c4)OCO5)nn3c2Br)cc1 | > 200 | > 200 |  |
| CC(C)CC(NC(=O)C(CO)NC(=O)C(CCCCN)NC(=O)C(CCCCN)NC(=O)C(NC(=O)CNC(=O)C(NC(=O)C(CO)NC(=O)C(NC(=O)C(NC(=O)C(CO)NC(=O)C(CC(N)=O)NC(=O)C(N)CCC(N)=O)C(C)C)C(C)C)C(C)O)C(C)C)C(=O)NC(Cc1ccccc1)C(=O)NC(CCC(N)=O)C(=O)O (stereo unspecified) (H-QNSVVSTGVKKSLFQ-OH; configuration not given here) |  |  | inactive |
| COC1OC2COc3ccccc3OC2C2N=C(N)SC12 (stereo unspecified) | 295 | 363 |  |
| C/C(=C\c1ccc(F)cc1)C(=O)O | > 275 | > 275 |  |
| CC(=O)[C@H]1CC[C@@H]2[C@]1(C)CC=C1[C@]23C=C[C@]2(C[C@@H](O)CC[C@]12C)C(C(=O)O)C3C(=O)O (stereo partly specified) |  |  | inactive |
| CN[C@@H](C)[C@H](NC)c1ccccc1 |  |  | inactive |
| CC(=O)Nc1ccc(/C=C2/NC(=S)N(/C=C3\C(=O)Oc4ccccc4C3=O)C2=O)cc1 | > 200 | 155 |  |
| CC1SC2(CC3CCC2(C)C3(C)C)OC1=O (stereo unspecified) | > 20.9 | > 20.9 |  |
| C[C@H]1C2=CC(=O)CC[C@@](C)(O2)[C@H]2CC[C@]3(C)C(=O)CC[C@H]3[C@H]12 | > 832 | 417 |  |
| CC(=O)OC[C@H]1OC(=O)C2O[C@H](c3ccccc3)OC21 (stereo partly specified) | > 200 | > 200 |  |
| COC(=O)c1onc(C2OC(C)(C)OC2C(O)COC(c2ccccc2)(c2ccccc2)c2ccccc2)c1C(=O)OC (stereo unspecified) | > 200 | 15.1 |  |
| O=C1C(O)=C(c2ccccc2)C(=O)C(O)=C1c1ccccc1 | > 85.1 | 43.7 |  |
| NCCCNc1ccc2c(c1)[n+]([O-])c1ccccc1[n+]2[O-] | > 437 | 10.2 |  |

| Compound | EC50 [µM] | IC50 [µM] | outcome |
| --- | --- | --- | --- |
| Oc1ccc2ccccc2c1OCc1nnc(CCCCCCCCc2nnc(COc3c(O)ccc4ccccc34)o2)o1 | > 200 | 47.9 |  |
| CC(=O)Oc1ccc(O)c(O)c1C/C=C(\C)CC/C=C(\C)CC/C=C(\C)CCC=C(C)C |  |  | inactive |
| CC1(C)C(=O)C2(C(=O)O)CCC1C2 (stereo unspecified) | > 200 | > 200 |  |
| ClC(Cl)=C1C(=C(Cl)Cl)C(Cl)(Cl)C1(Cl)Cl | > 52.5 | 2.82 |  |
| CCCOc1csc([C@H]2CCC3[C@@H]4CC=C5C[C@@H](O)CC[C@]5(C)C4CC[C@@]32C)n1 (stereo partly specified) | > 12 | > 12 |  |
| Cc1ccc2c(c1)C(=O)/C(=C1/CCc3ccc(C)cc31)C2 | > 200 | > 200 |  |
| Cn1cc(NC(=O)[C@@H]2CCC(N)=N2)cc1C(=O)NCCC(=N)N |  |  | inactive |
| Nc1cc2[nH]c(=O)c(=O)[nH]c2cc1N | > 200 | 63.1 |  |
| Cc1ccccc1NC(=O)C(=O)C(C1OC(=O)c2ccccc21)[N+](=O)[O-] (stereo unspecified) | > 708 | 339 |  |
| O=C(O)C12CC3CC(C1)C2C=C3P(=O)(O)O (stereo unspecified) | > 1020 | > 1020 |  |
| Clc1ccc(C2ON2C2CCCCC2)cc1 (stereo unspecified) |  |  | inactive |
| CN(C)CC1CCC/C(=C\c2ccc(OC(=O)/C=C/c3ccc(Cl)c(Cl)c3)cc2)C1=O (stereo unspecified) | > 100 | 1.45 |  |
| Cc1ccc2[c](c1)[Sn]([c]1ccccc1)([c]1ccccc1)[c]1cc(C)ccc1N2C | > 26.3 | 10.2 |  |
| O=C1NS(=O)(=O)c2ccccc21 | > 1200 | > 1200 |  |
| COc1ccc(N2C(=O)C3c4[nH]c5ccc(C)cc5c4C4CCC(C(C)(C)C)CC4C3C2=O)cc1 (stereo unspecified) | 12 | 47.9 |  |
| COc1ccc(/C(C)=N/NC(=O)c2ccncc2)c(OC)c1 | > 417 | 363 |  |
| O=c1n(C2CCCCC2)c(=C(Cl)Cl)c(=C(Cl)Cl)n1C1CCCCC1 | > 200 | > 200 |  |
| O=C1NC(O)c2cc(CO)ccc2O1 (stereo unspecified) | > 200 | 95.5 |  |
| COc1ccc(C2OC(c3ccncc3)=NN2C)cc1OC (stereo unspecified) | > 200 | 87.1 |  |

Source: PubChem BioAssay AID179 (DTP/NCI, 2004)
